From patent US20230015647A1, “INHIBITORS OF HISTONE DEMETHYLASES (PFI-63 AND PFI-90) FOR THE TREATMENT OF CANCER AND FOR THE INHIBITION OF HISTONE DEMETHYLASE IN CELLS” (The United States of America,as represented by the …, priority 2019, published 2023)
Entries after “also recorded” stand apart in the source; their conditions may differ. Like-named read-outs stand apart in the source and are kept apart here.

Tests used:
[1] = test system: PAX3-FOXO1 fusion transcription factor; test: RH4 ALK-Luc luciferase reporter assay (PAX3-FOXO1 super enhancer activity); type: cell-based, human; conditions: for Avg Absorbance @ 1 μM, ALK-Luc / Avg Absorbance @ 10 μM, ALK-Luc: RH4 ALK-Luc reporter
Protocol: The screen was performed using two derivatives of RH4 FP-RMS cells: • (1) “ALK-Luc cells”—RH4 cells expressing a pGreenFire green fluorescent protein (GFP)-luciferase reporter (SEQ ID NO: 1) controlled by the PAX3-FOXO1-dependent intronic ALK super enhancer (for reporting on PAX3-FOXO1 activity) (FIGS. 1 and 2); and • (2) “CMV-Luc cells”—control RH4 cells in which the reporter is transcribed from a constitutively active cytomegalovirus (CMV) promoter. An Example of visualization via the ALK-Luc reporter is depicted in FIG. 3.
The cells were enriched for reporter expression levels and used for assay development. A high throughput screening assay was developed after optimization of cell seeding density, length of incubation of cells prior to and post treatment with test compounds, and effect of passaging among other factors. The screen was designed to identify compounds that suppressed PAX3-FOXO1 activity without disrupting viability (at a short time points) or general transcription. The assay simultaneously monitors the function of the PAX3-FOXO1 super enhancer (also referred to as “ALK super enhancer”), general transcriptional activity as well as cell viability.
The visual summary of the screening strategy is illustrated in FIG. 4. ALK-Luc cells were seeded in both white-walled and white-bottomed 384-well plates (Perkin Elmer, Cat #6007658) for luciferase assays and in clear 384-well plates (Perkin Elmer, Cat #6007688) for viability assay (XTT reduction) by transferring 27 μL of cell suspensions (seeding 3000 cells per well) into each well. The plates were then transferred into an incubator for 18-20 h. The CMV-Luc cells were similarly seeded into white plates and incubated.
A pure compound library of 62,643 compounds consisting of synthetic and natural products described previously (Grohar et al., J Natl. Cancer Inst., 103: 962-978 (2011)) was then used in a high throughput screening campaign to identify inhibitors of PAX3-FOXO1. Stock DMSO Solutions of these compounds were used to prepare 100 μM solutions in growth medium in 384-well plates also containing 16 wells each of a positive control (Actinomycin D, Sigma, Cat #A1410) and negative control (DMSO). Screening compounds along with the positive and negative controls were added to assay plates by transferring 3 μL of the prepared 100 μM dilutions using an automated liquid handler (Agilent, Bravo). Treated plates were incubated for 24 h. At the end of this period, treated plates were allowed to equilibrate to room temperature for 30 minutes. SteadyLite Plus luciferase assay reagent powder (PerkinElmer, Cat #6066759) was reconstituted in its buffer in parallel and was also allowed to equilibrate to room temperature.
After transferring 30 μL of the luciferase assay reagent using a liquid handler, plates were further incubated at room temperature for 10 minutes. Finally, luminescence measurements were carried out using a multi-label microplate reader (BMG, Pherastar FSX) set in luminescence mode. Cell viability was assessed by adding XTT reagent (10 μL per well) in clear plates containing treated ALK-Luc cells. XTT treated plates were read using a plate reader in absorbance mode at 450 nm (PerkinElmer, Envision) after further incubation for 1 hour to allow cells to metabolize XTT to a colored formazan product. Luminescence and XTT absorbance values were normalized to the average of the negative controls on each plate and were calculated as a percentage of these controls. Performance of the screening assay was routinely monitored via calculation of Z-factor (Zhang et al., J. Biomol. Screen., 4: 67-73 (1999)) with Z′ for all plates found to be >0.7.
RH4 ALK-Luc and RH4 CMV-Luc cells were seeded into separate white-walled and bottomed 384-well plates and were incubated and treated with screen hits and epigenome compounds. The highest test concentration of these compounds (10-fold) were prepared from DMSO stock solutions via dilution in medium. […]

[2] = test system: OSA-CL osteosarcoma cells; test: Cell confluence assay in OSA-CL osteosarcoma cells; type: cell-based
Protocol: (§1) A cell confluence assay was performed to further assess the cytotoxicity of PFI-63 in OSA-CL osteosarcoma cells. Confluence data was collected via photographic images of cells treated with PFI-63 at the following time points: 24 hours, 48 hours, 72 hours, 96 hours and 120 hours. Exemplary dose response curves at 72 hours are presented as FIGS. 59 and 60 for PFI-63 and PFI-90 respectively.

[3] = test system: TC-32 Ewing's sarcoma cells; test: Cell confluence assay in TC-32 Ewing's sarcoma cells; type: cell-based; conditions: Homo sapiens, TC-32 cells
Protocol: as §1
A similar assay was performed to assess the cytotoxicity of PFI-63 and PFI-90 in TC-32 Ewing's sarcoma cells. Exemplary dose response curves at 72 hours are presented as FIGS. 61 and 62 for PFI-63 and PFI-90 respectively.

Log P / solubility = type: physicochemical
RH4 cells [4] = test: Western blot (MYOG, cleaved PARP, PAX3-FOXO1); type: cell-based, human
Protocol: The GSEA results were supported by analysis via Western blot. […] This example confirms that PFI-63 disrupts PAX3-FOXO1 super enhancer circuitry. PFI-63 is also associated with upregulation of targets associated with myogenic differentiation and apoptosis.
In RH4 cells treated with PFI-90 at 3 μM, an increase in cleaved PARP (a marker for apoptosis) is observed at 24 hours (FIG. 48). This coincides with a decrease in PAX3-FOXO1 which is also observed at 24 hours (FIG. 49).

histone H3 methylation = test: Western blot of histone H3 methylation in treated cells; type: cell-based
Source text: A diagram illustrating this activity is provided as FIG. 26.
Analysis via Western blot confirms that PFI-90 inhibits lysine demethylase activity.

RH4 cells [5] = test: Caspase 3 apoptosis assay in RH4 cells; type: cell-based, human
Source text: (§2) The impact of PFI-63 and PFI-90 on apoptosis in rhabdomyosarcoma cells was investigated by assaying caspase 3 levels in the cells, and by annexin V staining.

SCMC cells = test: Caspase 3 apoptosis assay in SCMC cells; type: cell-based, human
Source text: as §2

[6] = 72 hour time point, read-out: IC50
[7] = approximate, read-out: IC50 (toxic to osteosarcoma cells)
[8] = approximate, read-out: IC50 (toxic to Ewing's sarcoma cells)

| SMILES | suppression of PAX3-FOXO1 super enhancer activity [1] | Avg Absorbance @ 1 μM, ALK-Luc [1] | Avg Absorbance @ 10 μM, ALK-Luc [1] | IC50 [2, 6] [nM] | IC50 [2, 7] [nM] | IC50 [3, 6] [nM] | IC50 [3, 8] [nM] | logP (Log P / solubility) | MYOG (Western blot) (RH4 cells [4]) | cleaved PARP (Western blot) (RH4 cells [4]) | H3K4me3 (Western blot) (histone H3 methylation; treated cells) | H3K9me3 (Western blot) (histone H3 methylation; treated cells) | H3K27me3 (Western blot) (histone H3 methylation; treated cells) | caspase 3 (RH4 cells [5]) | caspase 3 (SCMC cells) | solubility (Log P / solubility; relative to PFI-63) | PAX3-FOXO1 (Western blot) (RH4 cells [4]; 3 μM, 24 hours) | cleaved PARP (Western blot) (RH4 cells [4]; 3 μM, 24 hours) | methylation of histone H3 (Western blot) (histone H3 methylation; as the concentration increases) |
| --- | --- | --- | --- | --- | --- | --- | --- | --- | --- | --- | --- | --- | --- | --- | --- | --- | --- | --- | --- |
| Cc1cc(C)cc(C(=O)NNC(=O)c2ccccn2)c1 [PFI-63] | significant suppression | 91.4 | 40.1 | 7570 | ~7500 | 1880 | ~2000 | 2.36 | increase | apoptosis; also recorded: increases | global increase | global increase | global increase | increased caspase 3 | increased caspase 3 | – | – | – | – |
| O=C(NNc1ccccn1)c1ccccn1 [PFI-90] | – | 55.9 | 34.0 | 1900 | ~2000 | 1110 | ~1000 | 0.82 | – | – | – | – | – | increased caspase 3 | increased caspase 3 | improved solubility relative to PFI-63 | decreases | increases | also increases |
